What all share (type): cell-based
The subject of test [1] is Staphylococcus aureus 446. As to the kind of experiment: MIC, standard broth micro-dilution assay, SA 446. The arrangement: unit not given here. How it is done:
(§1) The antibacterial efficacy of the present compounds is illustrated by Table II. The minimal inhibitory concentrations (MICs) were determined using a standard broth micro-dilution assay.
A general note: Dilution methods test growth across graded concentrations, often in twofold steps.

The subject of test [2] is Enterococcus faecium and faecalis (SENSITIVE). As to the kind of experiment: MIC, standard broth micro-dilution assay, SENSITIVE enterococci. The settings on record: geometric mean of 4-6 isolates. Set-up: unit not given here. How it is done:
as §1

Test [3] deals with Streptococcus pyogenes C203. The test is described as follows: MIC, standard broth micro-dilution assay, SPY C203. The arrangement: unit not given here. How it is done: as §1
Test [4] deals with Staphylococcus haemolyticus 415. As to the kind of experiment: MIC, standard broth micro-dilution assay, SH 415. Set-up: unit not given here. The procedure: as §1
The subject of test [5] is Enterococcus faecium and faecalis (RESISTANT). The settings on record: geometric mean of 4-6 isolates. How it is done: as §1
The subject of test [6] is Staphylococcus aureus 447. As to the kind of experiment: MIC, standard broth micro-dilution assay, SA 447. The arrangement: unit not given here. The procedure: as §1
Test [7] relates to Staphylococcus epidermidis 270. The test is described as follows: MIC, standard broth micro-dilution assay, SE 270. Set-up: unit not given here. The procedure: as §1
The subject of test [8] is Streptococcus pneumoniae P1. The test is described as follows: MIC, standard broth micro-dilution assay, SPN P1. The arrangement: unit not given here. The procedure: as §1
The subject of test [9] is Staphylococcus haemolyticus 105. As to the kind of experiment: MIC, standard broth micro-dilution assay, SH 105. The arrangement: unit not given here. How it is done: as §1
Test [10] has as its system Staphylococcus aureus 489. As to the kind of experiment: MIC, standard broth micro-dilution assay, SA 489. Set-up: unit not given here. The procedure:
as §1

We go through three compounds from patent US5977063A, “Alkylated hexapeptides” (Eli Lilly and Company, priority 1998, dated 1999).

With `C[C@@H]1O[C@@H](O[C@@H]2c3ccc(c(Cl)c3)Oc3cc4cc(c3O[C@@H]3O[C@H](CO)[C@@H](O)[C@H](O)[C@H]3O[C@H]3C[C@](C)(NCc5ccc(-c6ccccc6)cc5)[C@@H](O)[C@H](C)O3)Oc3ccc(cc3Cl)[C@@H](O)[C@@H](NCc3ccc(O)cc3)C(=O)N[C@@H](CC(N)=O)C(=O)N[C@H]4C(=O)N[C@H]3C(=O)N[C@@H]2C(=O)N[C@H](C(=O)O)c2cc(O)cc(O)c2-c2cc3ccc2O)C[C@](C)(N)[C@H]1O` [Example 17, N^1 -(p-HYDROXYBENZYL)-N^DISACC -(p-PHENYLBENZYL)-DESLEUCYL-A82846B], the “Minimal Inhibitory Concentration (MIC) SA 446” value in [1] is reported as 1. In addition, the “Minimal Inhibitory Concentration (MIC) SENSITIVE” value in test [2] is on record as 2.6. For the same compound, in test [3], the “Minimal Inhibitory Concentration (MIC) SPY C203” value is “≤ .06”. Moreover, the “Minimal Inhibitory Concentration (MIC) SH 415” value in test [4] stood at 1. The “Minimal Inhibitory Concentration (MIC) RESISTANT” value in [5] is on record as 27. Also, the “Minimal Inhibitory Concentration (MIC) SA 447” value in test [6] turned out to be 0.5. The “Minimal Inhibitory Concentration (MIC) SE 270” value in test [7] is 0.5. For the same compound, the “Minimal Inhibitory Concentration (MIC) SPN P1” value in test [8] is listed as “≤ .06”. Moreover, the “Minimal Inhibitory Concentration (MIC) SH 105” value in [9] is 0.5. Further, the “Minimal Inhibitory Concentration (MIC) SA 489” value in [10] was 1.
On to `C[C@@H]1O[C@@H](O[C@H]2[C@H](Oc3c4cc5cc3Oc3ccc(cc3Cl)[C@@H](O[C@H]3C[C@](C)(N)[C@@H](O)[C@H](C)O3)[C@@H]3NC(=O)[C@H](NC(=O)[C@@H]5NC(=O)[C@H](CC(N)=O)NC(=O)[C@H](NCCCCCCCCCCc5ccccc5)[C@H](O)c5ccc(c(Cl)c5)O4)c4ccc(O)c(c4)-c4c(O)cc(O)cc4[C@@H](C(=O)O)NC3=O)O[C@H](CO)[C@@H](O)[C@@H]2O)C[C@](C)(N)[C@H]1O` [Example 18, N^1 -(10-PHENYL-n-DECYL)DESLEUCYL-A82846B], for which the “Minimal Inhibitory Concentration (MIC) SA 446” value in test [1] is listed as 2. In addition, in test [2], the “Minimal Inhibitory Concentration (MIC) SENSITIVE” value is given as 12. For the same compound, in test [3], the “Minimal Inhibitory Concentration (MIC) SPY C203” value was 0.25. For the same compound, the “Minimal Inhibitory Concentration (MIC) SH 415” value in test [4] is recorded as 2. Besides, in [5], the “Minimal Inhibitory Concentration (MIC) RESISTANT” value is 19. For the same compound, in test [6], the “Minimal Inhibitory Concentration (MIC) SA 447” value is 2. Also, the “Minimal Inhibitory Concentration (MIC) SE 270” value in test [7] amounted to 4. In [8], the “Minimal Inhibitory Concentration (MIC) SPN P1” value is recorded as 0.5. Also, the “Minimal Inhibitory Concentration (MIC) SH 105” value in test [9] stood at 4. Further, the “Minimal Inhibitory Concentration (MIC) SA 489” value in [10] was 2.
Regarding `C[C@@H]1O[C@@H](O[C@H]2[C@H](Oc3c4cc5cc3Oc3ccc(cc3Cl)[C@@H](O[C@H]3C[C@](C)(N)[C@@H](O)[C@H](C)O3)[C@@H]3NC(=O)[C@H](NC(=O)[C@@H]5NC(=O)[C@H](CC(N)=O)NC(=O)[C@H](NCCCCCCCCc5ccccc5)[C@H](O)c5ccc(c(Cl)c5)O4)c4ccc(O)c(c4)-c4c(O)cc(O)cc4[C@@H](C(=O)O)NC3=O)O[C@H](CO)[C@@H](O)[C@@H]2O)C[C@](C)(N)[C@H]1O` [Example 19, N^1 -(8-PHENYL-n-OCTYL)DESLEUCYL-A82846B], the “Minimal Inhibitory Concentration (MIC) SA 446” value in test [1] was determined as 2. Besides, the “Minimal Inhibitory Concentration (MIC) SENSITIVE” value in test [2] is given as 254. In addition, the “Minimal Inhibitory Concentration (MIC) SPY C203” value in test [3] was determined as 0.5. Also, in test [4], the “Minimal Inhibitory Concentration (MIC) SH 415” value is on record as 2. In [5], the “Minimal Inhibitory Concentration (MIC) RESISTANT” value is recorded as 45. In addition, in test [6], the “Minimal Inhibitory Concentration (MIC) SA 447” value stood at 1. For the same compound, in test [7], the “Minimal Inhibitory Concentration (MIC) SE 270” value turned out to be 4. In test [8], the “Minimal Inhibitory Concentration (MIC) SPN P1” value came to 0.5. In addition, the “Minimal Inhibitory Concentration (MIC) SH 105” value in test [9] turned out to be 2. In test [10], the “Minimal Inhibitory Concentration (MIC) SA 489” value came to 1.
